How the values were obtained:
[1] = tested on: feline calicivirus F4 strain; test: In vitro test in test tube, feline caliciviruses (Example 11); assay type: cell-based; details: pH unadjusted
MDCK cells = test: Impairment in colony formation capability; assay type: cell-based, canine; details: phosphoric acid buffer (FIG. 7)
feline caliciviruses = test: Sterilizing solution wrung from wet wipe, feline caliciviruses (Example 11)
Vero cells = test: Impairment in colony formation capability; assay type: cell-based, African green monkey; details: phosphoric acid buffer (FIG. 7)
[2] = tested on: Herpes simplex virus type I VR-539; test: Inactivation of herpesviruses, plaque assay on Vero cells; assay type: cell-based

OCl [Sodium hypochlorite aqueous solution, sodium hypochlorite]
number of infectious viruses ([1]; 100 ppm, contact 0 min): 6.4 ± 2.7 log CPU/mL
number of infectious viruses ([1]; 100 ppm, contact 1 min): <2.0 log CPU/mL
number of infectious viruses ([1]; 100 ppm, contact 5 min): <2.0 log CPU/mL
number of infectious viruses ([1]; 100 ppm, contact 10 min): <2.0 log CPU/mL
number of infectious viruses ([1]; 200 ppm, contact 0 min): 6.4 ± 2.7 log CPU/mL
number of infectious viruses ([1]; 200 ppm, contact 1 min): <2.0 log CPU/mL
number of infectious viruses ([1]; 200 ppm, contact 5 min): <2.0 log CPU/mL
number of infectious viruses ([1]; 200 ppm, contact 10 min): <2.0 log CPU/mL
number of infectious viruses ([1]; 400 ppm, contact 0 min): 6.4 ± 2.7 log CPU/mL
number of infectious viruses ([1]; 400 ppm, contact 1 min): <2.0 log CPU/mL
number of infectious viruses ([1]; 400 ppm, contact 5 min): <2.0 log CPU/mL
number of infectious viruses ([1]; 400 ppm, contact 10 min): <2.0 log CPU/mL
concentration at which impairment in colony formation was observed (MDCK cells): ≤ 5 ppm
number of infectious viruses (feline caliciviruses; solution from wet wipe, 500 ppm (formulation 60 times), contact 1 min): 3.5 ± 2.1 CPU/mL
number of infectious viruses (feline caliciviruses; solution from wet wipe, 500 ppm (formulation 60 times), contact 5 min): 2.9 ± 2.7 CPU/mL
number of infectious viruses (feline caliciviruses; solution from wet wipe, 500 ppm (formulation 60 times), contact 10 min): <100 CPU/mL
number of infectious viruses (feline caliciviruses; solution from wet wipe, 750 ppm (formulation 40 times), contact 1 min): <100 CPU/mL
number of infectious viruses (feline caliciviruses; solution from wet wipe, 750 ppm (formulation 40 times), contact 5 min): <100 CPU/mL
number of infectious viruses (feline caliciviruses; solution from wet wipe, 750 ppm (formulation 40 times), contact 10 min): <100 CPU/mL
number of infectious viruses (feline caliciviruses; solution from wet wipe, 1000 ppm (formulation 30 times), contact 1 min): <100 CPU/mL
number of infectious viruses (feline caliciviruses; solution from wet wipe, 1000 ppm (formulation 30 times), contact 5 min): <100 CPU/mL
number of infectious viruses (feline caliciviruses; solution from wet wipe, 1000 ppm (formulation 30 times), contact 10 min): <100 CPU/mL
number of infectious viruses (feline caliciviruses; solution from wet wipe, 3000 ppm (formulation 10 times), contact 1 min): <100 CPU/mL
number of infectious viruses (feline caliciviruses; solution from wet wipe, 3000 ppm (formulation 10 times), contact 5 min): <100 CPU/mL
number of infectious viruses (feline caliciviruses; solution from wet wipe, 3000 ppm (formulation 10 times), contact 10 min): <100 CPU/mL
number of infectious viruses (feline caliciviruses; wet wipe stored Day 0, 1000 ppm, contact 1 min): <100
number of infectious viruses (feline caliciviruses; wet wipe stored Day 0, 1000 ppm, contact 5 min): <100
number of infectious viruses (feline caliciviruses; wet wipe stored Day 0, 1000 ppm, contact 10 min): <100
number of infectious viruses (feline caliciviruses; wet wipe stored Day 0, 3000 ppm, contact 1 min): <100
number of infectious viruses (feline caliciviruses; wet wipe stored Day 0, 3000 ppm, contact 5 min): <100
number of infectious viruses (feline caliciviruses; wet wipe stored Day 0, 3000 ppm, contact 10 min): <100
number of infectious viruses (feline caliciviruses; wet wipe stored Day 3, 1000 ppm, contact 1 min): Many
number of infectious viruses (feline caliciviruses; wet wipe stored Day 3, 1000 ppm, contact 5 min): Many
number of infectious viruses (feline caliciviruses; wet wipe stored Day 3, 1000 ppm, contact 10 min): Many
number of infectious viruses (feline caliciviruses; wet wipe stored Day 3, 3000 ppm, contact 1 min): Many
number of infectious viruses (feline caliciviruses; wet wipe stored Day 3, 3000 ppm, contact 5 min): Many
number of infectious viruses (feline caliciviruses; wet wipe stored Day 3, 3000 ppm, contact 10 min): Many
concentration at which impairment in colony formation was observed (Vero cells): ≤ 5 ppm
sterilizing effect on herpesvirus type I ([2]; acidic conditions of pH 5.5 or lower): diminished
Number of Residual Viruses in Test Solution/Number of Residual Viruses only with Buffer × 100 (%) ([2]; pH 4.5, 10 ppm): 80%
Number of Residual Viruses in Test Solution/Number of Residual Viruses only with Buffer × 100 (%) ([2]; pH 4.5, 50 ppm): 67.4%
Number of Residual Viruses in Test Solution/Number of Residual Viruses only with Buffer × 100 (%) ([2]; pH 4.5, 100 ppm): 63.1%
Number of Residual Viruses in Test Solution/Number of Residual Viruses only with Buffer × 100 (%) ([2]; pH 4.5, 150 ppm): 23.3%
Number of Residual Viruses in Test Solution/Number of Residual Viruses only with Buffer × 100 (%) ([2]; pH 4.5, 200 ppm): 35.2%
Number of Residual Viruses in Test Solution/Number of Residual Viruses only with Buffer × 100 (%) ([2]; pH 5.5, 10 ppm): 14.3%
Number of Residual Viruses in Test Solution/Number of Residual Viruses only with Buffer × 100 (%) ([2]; pH 5.5, 50 ppm): 90.9%
Number of Residual Viruses in Test Solution/Number of Residual Viruses only with Buffer × 100 (%) ([2]; pH 5.5, 100 ppm): 96.4%
Number of Residual Viruses in Test Solution/Number of Residual Viruses only with Buffer × 100 (%) ([2]; pH 5.5, 150 ppm): <0.2%
Number of Residual Viruses in Test Solution/Number of Residual Viruses only with Buffer × 100 (%) ([2]; pH 5.5, 150 ppm, listed as sodium hypochlorite aqueous solution): below the detectable limit
Number of Residual Viruses in Test Solution/Number of Residual Viruses only with Buffer × 100 (%) ([2]; pH 5.5, 200 ppm): <0.5%
Number of Residual Viruses in Test Solution/Number of Residual Viruses only with Buffer × 100 (%) ([2]; pH 5.5, 200 ppm, listed as sodium hypochlorite aqueous solution): below the detectable limit
Number of Residual Viruses in Test Solution/Number of Residual Viruses only with Buffer × 100 (%) ([2]; pH 6.5, 10 ppm): <6%
Number of Residual Viruses in Test Solution/Number of Residual Viruses only with Buffer × 100 (%) ([2]; pH 6.5, 50 ppm): <0.3%
Number of Residual Viruses in Test Solution/Number of Residual Viruses only with Buffer × 100 (%) ([2]; pH 6.5, 100 ppm): <0.3%
Number of Residual Viruses in Test Solution/Number of Residual Viruses only with Buffer × 100 (%) ([2]; pH 6.5, 150 ppm): <0.2%
Number of Residual Viruses in Test Solution/Number of Residual Viruses only with Buffer × 100 (%) ([2]; pH 6.5, 200 ppm): <0.6%
Number of Residual Viruses in Test Solution/Number of Residual Viruses only with Buffer × 100 (%) ([2]; pH 7.5, 10 ppm): 20%
Number of Residual Viruses in Test Solution/Number of Residual Viruses only with Buffer × 100 (%) ([2]; pH 7.5, 50 ppm): <0.3%
Number of Residual Viruses in Test Solution/Number of Residual Viruses only with Buffer × 100 (%) ([2]; pH 7.5, 100 ppm): <0.3%
Number of Residual Viruses in Test Solution/Number of Residual Viruses only with Buffer × 100 (%) ([2]; pH 7.5, 150 ppm): <0.2%
Number of Residual Viruses in Test Solution/Number of Residual Viruses only with Buffer × 100 (%) ([2]; pH 7.5, 200 ppm): <0.4%
Number of Residual Viruses in Test Solution/Number of Residual Viruses only with Buffer × 100 (%) ([2]; pH 8.5, 10 ppm): 36%
Number of Residual Viruses in Test Solution/Number of Residual Viruses only with Buffer × 100 (%) ([2]; pH 8.5, 50 ppm): <0.3%
Number of Residual Viruses in Test Solution/Number of Residual Viruses only with Buffer × 100 (%) ([2]; pH 8.5, 100 ppm): <0.3%
Number of Residual Viruses in Test Solution/Number of Residual Viruses only with Buffer × 100 (%) ([2]; pH 8.5, 150 ppm): <0.2%
Number of Residual Viruses in Test Solution/Number of Residual Viruses only with Buffer × 100 (%) ([2]; pH 8.5, 200 ppm): <0.4%
concentration reducing HSV-I to below the detectable limit ([2]; pH conditions of 6.5-8.5): ≥ 50 ppm

Reference: patent US20160113282A1 (HONBU SANKEI CO., LTD., priority 2013, published 2016)
